According to patent US20080234284A1, “Pyrazolo[1,5-a]Pyrimidin-7-Yl Amine Derivatives as Protein Kinase Inhibitors” (priority 2005, published 2008):

Legend:
c-Abl kinase = target: T1, c-Abl kinase (Homo sapiens, UniProt P00519); experiment: c-Abl protein-tyrosine kinase filter binding assay; format: biochemical
T1 construct: The His-tagged kinase domain of c-Abl is cloned and expressed in the baculovirus/Sf9 system; His; made in house; host or cells: Sf9 insect cells (baculovirus)
T1 sequence (P00519 242-493 limits assumed): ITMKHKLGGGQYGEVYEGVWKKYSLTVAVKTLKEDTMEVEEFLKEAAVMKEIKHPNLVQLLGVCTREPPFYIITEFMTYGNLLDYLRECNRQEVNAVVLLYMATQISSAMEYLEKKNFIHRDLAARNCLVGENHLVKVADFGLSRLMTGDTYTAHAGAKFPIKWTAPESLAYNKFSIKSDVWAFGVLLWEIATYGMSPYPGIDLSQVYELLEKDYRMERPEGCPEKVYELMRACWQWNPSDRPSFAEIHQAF
Procedure: The His-tagged kinase domain of c-Abl is cloned and expressed in the baculovirus/Sf9 system as described by Bhat et al. in J. Biol. Chem. 1997; 272:16170-16175. A protein of 37 kD (c-Abl kinase) is purified by a two-step procedure over a Cobalt metal chelate column followed by an anion exchange column with a yield of 1-2 mg/L of Sf9 cells (Bhat et al., reference cited). The purity of the c-Abl kinase is >90% as judged by SDS-PAGE after Coomassie blue stai-ning. The assay contains (total volume of 30 μL): c-Abl kinase (50 ng), 20 mM Tris.HCl, pH 7.5, 10 mM MgCl2, 10 μM Na3VO4, 1 mM DTT and 0.06 μCi/assay [γ33 P]-ATP (5 μM ATP) using 30 μg/mL poly-Ala, Glu, Lys, Tyr-6:2:5:1 (Poly-AEKY, Sigma P1152) in the presence of 1% DMSO. Reactions are terminated by adding 10 μL of 250 mM EDTA and 30 μL of the reaction mixture is transferred onto Immobilon-PVDF membrane (Millipore, Bedford, Mass., USA) previously soaked for 5 min with methanol, rinsed with water, then soaked for 5 min with 0.5% H3PO4 and mounted on vacuum manifold with disconnected vacuum source. After spotting all samples, vacuum is connected and each well rinsed with 200 μL 0.5% H3PO4. […] Membranes are counted after drying at ambient temperature, mounting in Packard TopCount 96-well frame, and addition of 10 μL/well of Microscint™ (Packard).

human EphB4 receptor = target: T2, human EphB4 receptor (Homo sapiens, UniProt P54760); experiment: EphB4 kinase assay on recombinant Ephrin B4 receptor domains (33P filter assay); format: biochemical
T2 construct: made in house; host or cells: Sf9 or Sf21 insect cells (baculovirus)
T2 sequence (P54760 566-987): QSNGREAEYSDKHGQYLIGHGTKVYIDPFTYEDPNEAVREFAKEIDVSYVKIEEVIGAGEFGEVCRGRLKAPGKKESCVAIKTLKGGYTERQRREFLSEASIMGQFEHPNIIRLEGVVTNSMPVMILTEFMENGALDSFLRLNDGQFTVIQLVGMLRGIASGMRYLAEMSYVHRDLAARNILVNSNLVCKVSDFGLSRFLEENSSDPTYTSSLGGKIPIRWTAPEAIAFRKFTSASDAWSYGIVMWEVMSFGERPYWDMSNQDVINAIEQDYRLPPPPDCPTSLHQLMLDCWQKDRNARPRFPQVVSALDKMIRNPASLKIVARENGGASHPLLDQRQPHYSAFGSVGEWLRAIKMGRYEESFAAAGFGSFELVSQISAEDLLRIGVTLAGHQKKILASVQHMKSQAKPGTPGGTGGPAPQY
Description: Recombinant baculovirus are generated that express the amino acid region 566-987 of the human EphB4 receptor (SwissProt Database, Accession No. P54760). GST sequence is cloned into pFastBac1® vector (Invitrogen Life Technologies, Basel, Switzerland) and PCR amplified. cDNAs encoding EphB4-receptor domains, respectively are cloned in frame 3′prime to the GST sequence into this modified FastBac1 vector to generate pBac-to-Bac™ donor vectors. Single colonies arising from the transformation are inoculated to give overnight cultures for small scale plasmid preparation. […] By automated sequencing the inserts and approximately 50 bp of the flanking vector sequences are confirmed on both strands.
Production of viruses: Viruses for each of the kinases are made according to the protocol supplied by GIBCO if not stated otherwise. In brief, transfer vectors containing the kinase domains are transfected into the DH10Bac cell line (GIBCO) and plated on selective agar plates. […]
Purification of GST-tagged kinases: The centrifuged cell lysate is loaded onto a 2 mL glutathione-sepharose column (Pharmacia) and washed three times with 10 mL of 25 mM Tris-HCl, pH 7.5, 2 mM EDTA, 1 mM DTT, 200 mM NaCl. […] Membranes are counted after drying at ambient temperature, mounting in Packard TopCount96-well frame, and addition of 10 μL/well of Microscint™ (Packard). […]

human EphB4 = target: T3, human EphB4 (Homo sapiens, UniProt P54760); experiment: EphB4 receptor autophosphorylation sandwich ELISA in transfected A375 human melanoma cells; format: cell-based; settings: EphB4 receptor auto-phosphorylation in vitro on cells
T3 construct: expressed in transfected cells; host or cells: A375 human melanoma cells (ATCC CRL-1619)
T3 sequence (P54760 16-987): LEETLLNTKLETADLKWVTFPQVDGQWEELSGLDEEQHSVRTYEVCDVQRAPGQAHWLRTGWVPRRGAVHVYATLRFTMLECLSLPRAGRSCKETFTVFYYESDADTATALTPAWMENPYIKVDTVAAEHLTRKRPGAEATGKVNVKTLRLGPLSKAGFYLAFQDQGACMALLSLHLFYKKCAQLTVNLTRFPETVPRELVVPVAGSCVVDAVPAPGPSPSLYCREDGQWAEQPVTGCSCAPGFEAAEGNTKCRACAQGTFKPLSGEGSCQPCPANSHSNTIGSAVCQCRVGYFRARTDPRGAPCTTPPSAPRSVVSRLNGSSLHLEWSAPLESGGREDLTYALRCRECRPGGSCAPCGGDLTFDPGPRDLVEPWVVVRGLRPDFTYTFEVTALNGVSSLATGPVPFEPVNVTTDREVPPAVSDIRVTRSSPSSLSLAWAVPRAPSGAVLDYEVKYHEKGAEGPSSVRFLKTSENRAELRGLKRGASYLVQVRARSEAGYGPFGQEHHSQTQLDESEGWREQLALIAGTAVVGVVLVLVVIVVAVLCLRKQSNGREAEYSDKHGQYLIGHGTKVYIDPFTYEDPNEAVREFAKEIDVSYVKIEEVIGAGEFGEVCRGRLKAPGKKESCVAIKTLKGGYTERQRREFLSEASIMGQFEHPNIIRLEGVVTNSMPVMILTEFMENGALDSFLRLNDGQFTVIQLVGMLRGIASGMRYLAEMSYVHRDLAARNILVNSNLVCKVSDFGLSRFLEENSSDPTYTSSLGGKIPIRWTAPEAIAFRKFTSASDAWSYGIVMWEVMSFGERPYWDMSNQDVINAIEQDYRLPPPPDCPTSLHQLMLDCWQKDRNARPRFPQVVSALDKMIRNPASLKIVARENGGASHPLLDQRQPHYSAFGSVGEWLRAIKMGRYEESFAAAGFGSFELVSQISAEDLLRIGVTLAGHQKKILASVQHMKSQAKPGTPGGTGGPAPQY
Procedure: Alternatively, EphB4 receptor autophosphorylation can be measured as follows: The inhibition of EphB4 receptor autophosphorylation can be confirmed with an in vitro experiment in cells such as transfected A375 human melanoma cells (ATCC Number: CRL-1619), which permanently express human EphB4 (SwissProt AccNo P54760), are seeded in complete culture medium (with 10% fetal calf serum ═FCS) in 6-well cell-culture plates and incubated at 37° C. under 5% CO2 until they show about 90% confluency. The compounds to be tested are then diluted in culture medium (without FCS, with 0.1% bovine serum albumin) and added to the cells. (Controls comprise medium without test compounds). Ligand induced autophosphorylation is induced by the addition of 1 microg/ml soluble ephrinB2-Fc (s-ephrinB2-Fc: R&D Biosystems, CatNr 496-EB) and 0.1 microM ortho-vanadate. After a further 20 minutes incubation at 37° C., the cells are washed twice with ice-cold PBS (phosphate-buffered saline) and immediately lysed in 200 μl lysis buffer per well. The lysates are then centrifuged to remove the cell nuclei, and the protein concentrations of the supernatants are determined using a commercial protein assay (PIERCE). The lysates can then either be immediately used or, if necessary, stored at −20° C. […]

COc1ccc(-c2cnn3c(N)c(-c4cccc(Cl)c4)c(CN4CCNCC4)nc23)cc1OC [Example 1, 6-(3-Chloro-phenyl)-3-(3,4-dimethoxy-phenyl)-5-piperazin-1-ylmethyl-pyrazolo[1,5-a]pyrimidin-7-ylamine]
1 to 1000 nM: c-Abl IC50 (c-Abl kinase) | EphB4 IC50 (human EphB4 receptor) | EphB4 ELISA - IC50 (human EphB4)

COc1ccc(-c2cnn3c(N)c(-c4ccc(F)cc4)c(CN4CCNCC4)nc23)cc1OC [Example 2, 3-(3,4-Dimethoxy-phenyl)-6-(4-fluoro-phenyl)-5-piperazin-1-ylmethyl-pyrazolo[1,5-a]pyrimidin-7-ylamine]
1 to 1000 nM: c-Abl IC50 (c-Abl kinase) | EphB4 IC50 (human EphB4 receptor) | EphB4 ELISA - IC50 (human EphB4)
